Source: patent publication US8202899B2, “Pyrazole urea derivatives used as kinase inhibitors” (Array BioPharma Inc., priority 2007, dated 2012)
Values after ≈ are worked out from the molar mass of the structure shown. Like-named read-outs stand apart in the source and are kept apart here.

Legend:
[1] = tested on: TNF-α production in whole blood treated with LPS; assay: Human Whole Blood TNF-α Assay; format: cell-based; settings: inhibition of LPS-induced TNF-α production, ELISA, read-out: apparent IC50
Procedure: In a functional cell assay, the compound of Examples 1 and 2 were tested for their ability to inhibit TNF-α production in whole blood treated with bacterial lipopolysaccharide (LPS) to induce cytokine production (as detected by ELISA).
Compound test solutions were made by making 3.33 fold serial dilutions in DMSO, which dilutions were then diluted to 5× stocks by diluting with MEM, 2% heat inactivated fetal bovine serum (“MS”), 20 mM HEPES, 2 mM L-glutamine, and 1% penicillin/streptomycin
Whole blood was collected from human volunteers using sodium heparin Vacutainer™ tubes and processed within two hours of collection. Blood was diluted 3-fold with Whole Blood (WB) medium (RPMI 1640, 2% heat inactivated fetal bovine serum, 20 mM HEPES, 2 mM L-glutamine, and 1% penicillin/streptomycin). 100 μL of diluted blood was added to each well of a 96-well cell culture plate, followed by 30 μL of a compound test solution.
After a one-hour incubation at 37° C./5% CO2, 20 μL of 7.5 ng/mL lipopolysaccharide (E. coli K-235, Sigma L2018) was added to each well. The cells were incubated again at 37° C./5% CO2 for 16-20 hours. […]
Briefly, test compound supernatants were added to wells of a 96-well plate that were coated with antibody to human TNF-α (R&D Systems, MAB210) and incubated at room temperature for at least one hour. […] The absorbance at 405 nm was then read.

[2] = Solubility Assay (modified shake flask method); format: physicochemical
Procedure: The solubility of each of the compounds of Examples 1 and 2 were tested at pHs 1.2, 6.5 and 7.4 using a modified shake flask method. The compounds were received as 1.6 mg/mL stock solutions in DMSO. Aqueous unknowns were prepared at final concentrations of 16 μg/mL and 32 μg/mL, with each aqueous unknown containing 1% or 2% DMSO, respectively. The aqueous samples were quantitated against organic standards prepared in MeOH (with 1% DMSO in the high standard (16 μg/mL). UV 220 nm and UV 254 nm area were used for quantitation.

[3] = molecular target: activated p38α enzyme (Homo sapiens, UniProt Q16539); assay: p38 Biochemical Assay
activated p38α enzyme, sequence (Q16539 whole entry, the tested form may be a part): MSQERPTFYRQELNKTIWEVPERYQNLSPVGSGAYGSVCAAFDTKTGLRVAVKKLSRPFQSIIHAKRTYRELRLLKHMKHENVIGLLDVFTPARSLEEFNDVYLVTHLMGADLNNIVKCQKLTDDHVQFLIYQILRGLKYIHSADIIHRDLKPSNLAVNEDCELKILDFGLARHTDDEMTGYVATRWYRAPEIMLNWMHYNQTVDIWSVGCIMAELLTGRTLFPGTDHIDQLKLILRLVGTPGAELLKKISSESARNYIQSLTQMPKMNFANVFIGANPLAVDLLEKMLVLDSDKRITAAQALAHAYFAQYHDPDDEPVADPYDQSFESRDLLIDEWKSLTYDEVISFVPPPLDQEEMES
Procedure: p38 activity was assayed at room temperature in a 100 μL reaction containing 5 nM activated p38α enzyme and 1 μM ATF-2 (Activating Transcription Factor 2 fusion protein) as the substrate in […] HEPES (pH 7.4), 100 μM Vanadate, 1 mM :DTT, 10 mM MgCl2 and 10 μM [γ-^33P]-ATP (˜0.1 μCi P^33/reaction). The reaction was terminated after 30-40 minutes by adding 25% TCA, allowed to stand for 5 minutes, and then transferred directly to a GF-B membrane filter plate. The filter was washed twice for 30 seconds with 0.5% phosphoric acid using a Tomtec Mach III Automated Harvestor. After washing, the vacuum was continued for 30 seconds to dry the filter. Approximately 30 μL of scintillant was added per well to the filter plate and then read in a Liquid Scintillation Counter (Packard TopCount HTS).

IC50 [1]	solubility ([2]; aqueous sample containing 1% DMSO, aqueous buffer, kinetic from dmso stock, pH 6.5, starting conc. 16 μg/mL (with 1% DMSO), read-out: Solubility pH 6.5)	solubility ([2]; aqueous sample containing 1% DMSO, aqueous buffer, kinetic from dmso stock, pH 7.4, starting conc. 16 μg/mL (with 1% DMSO), read-out: Solubility pH 7.4)	solubility ([2]; aqueous sample containing 1% DMSO, simulated gastric fluid, kinetic from dmso stock, pH 1.2, starting conc. 16 μg/mL (with 1% DMSO), read-out: Solubility pH 1.2)	solubility ([2]; aqueous sample containing 2% DMSO, aqueous buffer, kinetic from dmso stock, pH 6.5, starting conc. 32 μg/mL (with 2% DMSO), read-out: Solubility pH 6.5)	solubility ([2]; aqueous sample containing 2% DMSO, aqueous buffer, kinetic from dmso stock, pH 7.4, starting conc. 32 μg/mL (with 2% DMSO), read-out: Solubility pH 7.4)	solubility ([2]; aqueous sample containing 2% DMSO, simulated gastric fluid, kinetic from dmso stock, pH 1.2, starting conc. 32 μg/mL (with 2% DMSO), read-out: Solubility pH 1.2)	aqueous solubility compared to the compound of Example 138 of WO 2004/078116 ([2]; at pH 6.5 and 7.4)	solubility ([2]; aqueous solution (pH 7.4), aqueous buffer, pH 7.4, starting conc. 1000 μg/mL, read-out: Solubility pH 7.4)	SMILES	p38 inhibition potency compared to the compound of Example 138 of WO 2004/078116 [3]
447 nM	0.75 µg/mL (≈ 1.31 µM)	0.7 µg/mL (≈ 1.22 µM)	7.9 µg/mL (≈ 13.8 µM)	1.8 µg/mL (≈ 3.14 µM)	1.7 µg/mL (≈ 2.97 µM)	18.8 µg/mL (≈ 32.8 µM)	improved aqueous solubility		Cc1ccc(-n2nc(C(C)(C)CO)cc2NC(=O)NCc2cc(F)ccc2Oc2ccc3c(cnn3CCO)c2)cc1 [Example 1]	
1.9 nM									CC(C)(C)c1cc(NC(=O)NCc2cc(F)ccc2Oc2ccc3c(cnn3CCO)c2)n(-c2ccc(CO)cc2)n1 [Example 2, 1-(3-tert-butyl-1-(4-(hydroxymethyl)phenyl)-1H-pyrazol-5-yl)-3-(5-fluoro-2-(1-(2-hydroxymethyl)-1H-indazol-5-yloxy)benzyl)urea]	significantly more potent inhibitor of p38
								0.045 µg/mL (≈ 0.0885 µM)	Cn1nc(C(C)(C)C)cc1NC(=O)NCc1cc(F)ccc1Oc1ccc2c(cnn2CC(C)(C)O)c1 [Example 138, reference compound]	
